Laboratory results from patent US20060276486A1, “Lklf/klf2 gene expression promoter” (KOWA CO., KTD., priority 2003, published 2006).

Assays:
LKLF/KLF2 gene [1] = assay: LKLF/KLF2 gene expression in HUVEC by reverse transcription and TaqMan analysis (ABI PRISM 7000); assay type: cell-based, human; conditions: for activities to promote the expression of LKLF/KLF2 gene (summary statement): cultured human cell system; for effect of added metabolite on the increase of LKLF/KLF2 gene expression by pitavastatin calcium: pitavastatin calcium 1 μmol/L in combination with MVA 100 μmol/L, FPP, GGPP or Cho 10 μmol/L, 8 hours
LKLF/KLF2 gene [2] = assay: LKLF/KLF2 gene expression analysis in HUVEC by Human Genome Focus Array (GeneChip); assay type: cell-based; conditions: control 271
Method: Two days after inoculation of normal human umbilical vein endothelial cells (HUVEC) at 3×10^5 cells/10 cm dish, pitavastatin calcium (indicated as “Pit” in FIG. 1) was added to 1.1 μmol/L. Dimethyl sulfoxide, a solvent for pitavastatin calcium, was added to a control (final concentration: 0.0066 v/v %). Eight hours after the addition, total RNAs were extracted with “ISOGEN” (trade mark, product of NIPPON GENE CO., LTD.). The following procedures were conducted in accordance with the procedures manual of Affymetrix. Inc. Described specifically, following the methods known per se in the art, mRNA was isolated from each total RNA obtained above, and based on the mRNA, cDNA was synthesized. Further, biotin-labeled cRNA was synthesized by in vitro transcription. Subsequent to purification, the biotin-labeled cRNA was subjected to fragmentation by heat treatment to prepare fragmented cRNA for use in a gene expression analysis.
Gene expression analysis method: The fragmented cRNA was poured into “Human Genome Focus Array” (trade name, product of Affymetrix, Inc.), and hybridization was conducted at 45° C. for 16 hours. […] The information was analyzed by “GENECHIP SOFTWARE” (trade name, product of Affymetrix, Inc.) to effect a comparison in expression level.

Row | SMILES | activities to promote the expression of LKLF/KLF2 gene (summary statement) (LKLF/KLF2 gene [1]) | effect of added metabolite on the increase of LKLF/KLF2 gene expression by pitavastatin calcium (LKLF/KLF2 gene [1]; HUVEC) | further results
1 | CSCC[C@H](NC(=O)c1ccc(NC[C@@H](N)CS)cc1-c1ccccc1)C(=O)O [FTI-276] | in possession of activities to promote the expression of LKLF/KLF2 gene | – | –
2 | COC(=O)[C@H](CC(C)C)NC(=O)c1ccc(NC[C@@H](N)CS)cc1-c1ccccc1 [GGTI-286] | in possession of activities to promote the expression of LKLF/KLF2 gene | – | –
3 | CC(C)CCC[C@@H](C)[C@H]1CC[C@H]2[C@@H]3CC=C4C[C@@H](O)CC[C@]4(C)[C@H]3CC[C@]12C [cholesterol] | – | not affected | –
4 | CC(C)=CCC/C(C)=C/CC/C(C)=C/COP(=O)(O)OP(=O)(O)O [farnesyl pyrophosphate] | – | reduced | –
5 | CC(C)=CCC/C(C)=C/CC/C(C)=C/CC/C(C)=C/COP(=O)(O)OP(=O)(O)O [geranylgeranyl pyrophosphate] | – | reduced | –
6 | C[C@@](O)(CCO)CC(=O)O [mevalonic acid] | – | reduced | –
7 | O=C(O)C[C@H](O)C[C@H](O)/C=C/c1c(C2CC2)nc2ccccc2c1-c1ccc(F)cc1 [pitavastatin calcium, (3R,5S,6E)-7-[2-cyclopropyl-4-(4-fluorophenyl)-3-quinolyl]-3,5-dihydroxy-6-heptenoic acid] | has activities to promote the expression of LKLF/KLF2 gene | – | expression of LKLF/KLF2 gene in HUVEC (expression level) with addition of GGPP (LKLF/KLF2 gene [2]; pitavastatin calcium 1.1 μmol/L plus geranylgeranyl pyrophosphate (GGPP), 8 hours): 355; expression of LKLF/KLF2 gene in HUVEC (expression level) (LKLF/KLF2 gene [2]; pitavastatin calcium 1.1 μmol/L, 8 hours after addition): 761; increase of expression of LKLF/KLF2 gene in comparison with the group added with no drug (LKLF/KLF2 gene [1]; HUVEC, 1 μmol/L alone, 8 hours after addition): 693%
